Reference: patent US9957274B2, “Indane inhibitors of EED and methods of their use” (AbbVie Inc., priority 2016, dated 2018)

Target: EED (Homo sapiens, UniProt O75530)
Test: EED TR-FRET Binding Assay (modified LanthaScreen competition assay)
Protocol: Compounds were tested in a modified LanthaScreen competition assay.
The following buffer was used to set up the binding reactions: 20 mM Tris-HCl pH 7.5, 200 mM NaCl, 0.01% Tween-20, 10 uM DTT (dithiothreitol), and 0.05% BSA (bovine serum albumin), with the DTT and BSA added fresh prior to initiating the binding assay. […] The reactions were then incubated for 1 hour at 25° C. in a humidified chamber prior to detection on the Perkin Elmer Envision plate reader using a Lanthascreen TR-FRET protocol.

Chain of EED (O75530 whole entry): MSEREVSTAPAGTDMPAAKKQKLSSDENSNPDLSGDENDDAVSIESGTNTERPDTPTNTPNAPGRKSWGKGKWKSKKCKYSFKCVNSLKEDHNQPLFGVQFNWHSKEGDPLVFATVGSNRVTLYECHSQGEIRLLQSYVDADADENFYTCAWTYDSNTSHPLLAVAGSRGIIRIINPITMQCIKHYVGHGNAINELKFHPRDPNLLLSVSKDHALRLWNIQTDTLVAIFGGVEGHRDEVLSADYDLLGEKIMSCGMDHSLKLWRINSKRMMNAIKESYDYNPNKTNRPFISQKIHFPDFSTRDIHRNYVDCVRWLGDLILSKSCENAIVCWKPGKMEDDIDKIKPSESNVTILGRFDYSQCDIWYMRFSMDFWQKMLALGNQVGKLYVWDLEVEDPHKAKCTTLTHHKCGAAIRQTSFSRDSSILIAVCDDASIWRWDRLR

Row | SMILES | IC50 [nM]
1 | CN(C)[C@H]1CN(C2CCc3cccc(F)c32)C[C@@H]1C1CCOCC1 (mixture of isomers) [Example 144, rac-(3R,4S)-1-(7-fluoro-2,3-dihydro-1H-inden-1-yl)-N,N-dimethyl-4-(oxan-4-yl)pyrrolidin-3-amine] | 12.1
2 | CC(=O)N1CCN(c2ccc([C@@H]3CN([C@H]4CCc5cccc(F)c54)C[C@H]3N(C)C)cc2)CC1 [Example 47, 1-[4-(4-{(3R,4S)-4-(dimethylamino)-1-[(1S)-7-fluoro-2,3-dihydro-1H-inden-1-yl]pyrrolidin-3-yl}phenyl)piperazin-1-yl]ethan-1-one] | 42.3
3 | CN(C)[C@@H]1CN(C2CCc3cccc(F)c32)C[C@H]1c1ccc(C(=O)O)cc1 (mixture of isomers) [Example 29, rac-4-[(3R,4S)-4-(dimethylamino)-1-(7-fluoro-2,3-dihydro-1H-inden-1-yl)pyrrolidin-3-yl]benzoic acid] | 23.2
4 | CN(C)[C@H]1CN([C@H]2C[C@@H](O)c3cccc(F)c32)C[C@@H]1c1ccc(S(C)(=O)=O)cc1 (mixture of isomers) [Example 34, rac-(1R,3S)-3-{(3R,4S)-3-(dimethylamino)-4-[4-(methanesulfonyl)phenyl]pyrrolidin-1-yl}-4-fluoro-2,3-dihydro-1H-inden-1-ol] | 104
5 | CN(C)[C@@H]1CN([C@@H]2CCc3cccc(F)c32)C[C@H]1C1COc2ccccc21 (mixture of isomers) [Example 139, rac-(3S,4R)-4-(2,3-dihydro-1-benzofuran-3-yl)-1-[(1R)-7-fluoro-2,3-dihydro-1H-inden-1-yl]-N,N-dimethylpyrrolidin-3-amine] | 83.5
6 | CN(C)[C@H]1CN([C@@H]2C[C@@H](O)c3cccc(F)c32)C[C@@H]1c1ccc(S(C)(=O)=O)cc1 (mixture of isomers) [Example 16, rac-(1R,3R)-3-{(3R,4S)-3-(dimethylamino)-4-[4-(methanesulfonyl)phenyl]pyrrolidin-1-yl}-4-fluoro-2,3-dihydro-1H-inden-1-ol] | 491
7 | CN(C)[C@H]1CN([C@@H]2CCc3cccc(F)c32)C[C@@H]1C1COc2ccccc21 (mixture of isomers) [Example 142, rac-(3R,4S)-4-(2,3-dihydro-1-benzofuran-3-yl)-1-[(1R)-7-fluoro-2,3-dihydro-1H-inden-1-yl]-N,N-dimethylpyrrolidin-3-amine] | 26
8 | CN(C)[C@H]1CN(C2CCc3cccc(Cl)c32)C[C@@H]1c1ccc(C(=O)O)cc1 (mixture of isomers) [Example 28, rac-4-[(3S,4R)-1-(7-chloro-2,3-dihydro-1H-inden-1-yl)-4-(dimethylamino)pyrrolidin-3-yl]benzoic acid] | 489
9 | CN(C)[C@@H]1CN([C@H]2CCc3ccccc32)C[C@H]1c1ccc(S(C)(=O)=O)cc1 [Example 10, (3S,4R)-1-[(1S)-2,3-dihydro-1H-inden-1-yl]-4-[4-(methanesulfonyl)phenyl]-N,N-dimethylpyrrolidin-3-amine] | 290
10 | CN(C)[C@@H]1CN(C2CCc3cccc(F)c32)C[C@H]1c1cnc2n1CCCC2 (mixture of isomers) [Example 140, rac-(3S,4R)-1-(7-fluoro-2,3-dihydro-1H-inden-1-yl)-N,N-dimethyl-4-(5,6,7,8-tetrahydroimidazo[1,2-a]pyridin-3-yl)pyrrolidin-3-amine] | 61.3
11 | CN(C)[C@@H]1CN(C2CCc3cccc(F)c32)C[C@H]1c1ccc(N2CCN(C(=O)OC(C)(C)C)CC2)cc1 (stereo partly drawn) [Example 50, tert-butyl 4-{4-[(3R,4S)-4-(dimethylamino)-1-(7-fluoro-2,3-dihydro-1H-inden-1-yl)pyrrolidin-3-yl]phenyl}piperazine-1-carboxylate] | 1.15
12 | CN(C)[C@@H]1CN(C2CCc3cccc(F)c32)C[C@H]1c1ccc(N2CCNCC2)nc1 (mixture of isomers) [Example 145, rac-(3S,4R)-1-(7-fluoro-2,3-dihydro-1H-inden-1-yl)-N,N-dimethyl-4-[6-(piperazin-1-yl)pyridin-3-yl]pyrrolidin-3-amine] | 5.2
13 | CN(C)[C@H]1CN([C@H]2CCc3ccccc32)C[C@@H]1c1ccc(S(C)(=O)=O)cc1 [Example 9, (3R,4S)-1-[(1S)-2,3-dihydro-1H-inden-1-yl]-4-[4-(methanesulfonyl)phenyl]-N,N-dimethylpyrrolidin-3-amine] | 10.1
14 | Cc1cc([C@H]2CN(C3c4ccccc4CC3O)C[C@@H]2N(C)C)ccc1C#N (mixture of isomers) [Example 38, rac-4-[(3S,4R)-4-(dimethylamino)-1-(2-hydroxy-2,3-dihydro-1H-inden-1-yl)pyrrolidin-3-yl]-2-methylbenzonitrile] | 68.7
15 | CN(C)[C@H]1CN(C2CCc3cccc(F)c32)C[C@@H]1c1cn(C)c2cc(N3CCN(S(C)(=O)=O)CC3)ccc12 (mixture of isomers) [Example 120, rac-(3R,4S)-1-(7-fluoro-2,3-dihydro-1H-inden-1-yl)-4-{6-[4-(methanesulfonyl)piperazin-1-yl]-1-methyl-1H-indol-3-yl}-N,N-dimethylpyrrolidin-3-amine] | 3.46

The next lines start with the values.

Row | IC50 [nM] | SMILES
16 | 0.561 | COC(=O)c1cccc2c([C@H]3CN(C4CCc5cccc(F)c54)C[C@@H]3N(C)C)cn(C)c12 (mixture of isomers) [Example 85, rac-methyl 3-[(3S,4R)-4-(dimethylamino)-1-(7-fluoro-2,3-dihydro-1H-inden-1-yl)pyrrolidin-3-yl]-1-methyl-1H-indole-7-carboxylate]
17 | 20.8 | CN(C)[C@H]1CN(C2CCc3c(F)cccc32)C[C@@H]1c1cn(C)c2ccccc12 (mixture of isomers) [Example 90, rac-(3R,4S)-1-(4-fluoro-2,3-dihydro-1H-inden-1-yl)-N,N-dimethyl-4-(1-methyl-1H-indol-3-yl)pyrrolidin-3-amine]
18 | 14.3 | Cc1cc([C@H]2CN(C3CCc4cccc(F)c43)C[C@@H]2N(C)C)ccc1C(=O)O (mixture of isomers) [Example 36, rac-4-[(3S,4R)-4-(dimethylamino)-1-(7-fluoro-2,3-dihydro-1H-inden-1-yl)pyrrolidin-3-yl]-2-methylbenzoic acid]
19 | 4.26 | CN(C)[C@H]1CN(C2CCc3ccc(F)c(F)c32)C[C@@H]1c1cn(C)c2ccccc12 (stereo partly drawn) [Example 96, (3R,4S)-1-(6,7-difluoro-2,3-dihydro-1H-inden-1-yl)-N,N-dimethyl-4-(1-methyl-1H-indol-3-yl)pyrrolidin-3-amine]
20 | 15.3 | CN(C)[C@@H]1CN(C2CCc3cccc(F)c32)C[C@H]1c1cn(C)c2c(C(=O)N3CC(F)C3)cccc12 (stereo partly drawn) [Example 104, {3-[(3R,4S)-4-(dimethylamino)-1-(7-fluoro-2,3-dihydro-1H-inden-1-yl)pyrrolidin-3-yl]-1-methyl-1H-indol-7-yl}(3-fluoroazetidin-1-yl)methanone]
21 | 2.76 | CN(C)[C@H]1CN(C2CCc3cccc(F)c32)C[C@@H]1c1cn(C)c2c(Br)cccc12 (mixture of isomers) [Example 93, rac-(3R,4S)-4-(7-bromo-1-methyl-1H-indol-3-yl)-1-(7-fluoro-2,3-dihydro-1H-inden-1-yl)-N,N-dimethylpyrrolidin-3-amine]
22 | 1.84 | Cc1cc([C@H]2CN(C3CCc4cccc(F)c43)C[C@@H]2N(C)C)ccc1Br (mixture of isomers) [Example 27, rac-(3R,4S)-4-(4-bromo-3-methylphenyl)-1-(7-fluoro-2,3-dihydro-1H-inden-1-yl)-N,N-dimethylpyrrolidin-3-amine]
23 | 58.4 | Cc1cccc2c1C(N1C[C@H](c3cn(C)c4ccccc34)[C@@H](N(C)C)C1)CC2 (stereo partly drawn) [Example 100, (3R,4S)-N,N-dimethyl-1-(7-methyl-2,3-dihydro-1H-inden-1-yl)-4-(1-methyl-1H-indol-3-yl)pyrrolidin-3-amine]
24 | 14.8 | COC(=O)c1cccc2c([C@@H]3CN(C4CCc5cccc(F)c54)C[C@H]3N(C)C)cn(C)c12 (stereo partly drawn) [Example 86, methyl 3-[(3R,4S)-4-(dimethylamino)-1-(7-fluoro-2,3-dihydro-1H-inden-1-yl)pyrrolidin-3-yl]-1-methyl-1H-indole-7-carboxylate]
25 | 10.9 | COC(=O)c1ccc2c([C@@H]3CN(C4CCc5cccc(F)c54)C[C@H]3N(C)C)cn(C)c2c1 (mixture of isomers) [Example 83, rac-methyl 3-[(3R,4S)-4-(dimethylamino)-1-(7-fluoro-2,3-dihydro-1H-inden-1-yl)pyrrolidin-3-yl]-1-methyl-1H-indole-6-carboxylate]
26 | 30.7 | CN(C)[C@H]1CN(C2CCc3cc(F)ccc32)C[C@@H]1c1cn(C)c2ccccc12 (mixture of isomers) [Example 91, rac-(3R,4S)-1-(5-fluoro-2,3-dihydro-1H-inden-1-yl)-N,N-dimethyl-4-(1-methyl-1H-indol-3-yl)pyrrolidin-3-amine]
27 | 0.296 | COC(=O)c1cccc2c([C@H]3CN(C4CCc5cccc(F)c54)C[C@@H]3N(C)C)cn(C)c12 (stereo partly drawn) [Example 84, methyl 3-[(3S,4R)-4-(dimethylamino)-1-(7-fluoro-2,3-dihydro-1H-inden-1-yl)pyrrolidin-3-yl]-1-methyl-1H-indole-7-carboxylate]
28 | 1.07 | COC(=O)c1ccc([C@H]2CN(C3CCc4cccc(F)c43)C[C@@H]2N(C)C)cc1C (mixture of isomers) [Example 39, rac-methyl 4-[(3S,4R)-4-(dimethylamino)-1-(7-fluoro-2,3-dihydro-1H-inden-1-yl)pyrrolidin-3-yl]-2-methylbenzoate]
29 | 33.6 | CN(C)[C@H]1CN(C2CCc3cccc(O)c32)C[C@@H]1c1cn(C)c2ccccc12 (stereo partly drawn) [Example 97, 3-[(3R,4S)-3-(dimethylamino)-4-(1-methyl-1H-indol-3-yl)pyrrolidin-1-yl]-2,3-dihydro-1H-inden-4-ol]
30 | 46.8 | CN(C)[C@H]1CN(C2CCc3cccc(F)c32)C[C@@H]1c1cn(C)c2ccncc12 (mixture of isomers) [Example 141, rac-(3R,4S)-1-(7-fluoro-2,3-dihydro-1H-inden-1-yl)-N,N-dimethyl-4-(1-methyl-1H-pyrrolo[3,2-c]pyridin-3-yl)pyrrolidin-3-amine]
